The term IC50 denotes the concentration at which inhibition is half-maximal. A high value points to weaker potency.

This experiment concerns the target T1, i-NOS (Homo sapiens, UniProt P35228).
T1 construct: The supernatant was collected as a source of i-NOS; endogenous in cells; host or cells: A549 (human lung epithelial cell line), stimulated with LPS, TNF-alpha, IL-1beta and IFN-gamma; sonicated, 54,000 rpm supernatant
Nature of the experiment: i-NOS Inhibition Test. Format: biochemical. The note with it: i-NOS from supernatant of A549 cells stimulated with LPS, TNF-α, IL-1β, INF-γ; 14C-L-arginine substrate; 37° C., 10 minutes; pH 7.8. On the procedure: The pharmacological activity of the compound of formula (I) according to the present invention on i-NOS was examined by the following test.
To human lung epithelial cell line of A549 were added 10 μg/ml of lipopolysaccharide (LPS), 10 ng/ml of tumor necrosis factor-α (TNF-α), 5 ng/ml of interleukin-1β (IL-1β), and 100 ng/ml of interferon-γ (INF-γ). Sixteen hours later the cells were ruptured by ultrasonication and centrifuged at 54,000 rpm. The supernatant was collected as a source of i-NOS.
i-NOS was made to act on ^14 C-labeled L-arginine as a substrate, and L-citrulline produced in the presence of the compound of the invention was determined to calculate the 50% inhibitory concentration of the test compound. More specifically, 10 μl of a 16.8 μM solution of L-[U-^14 C]arginine, 10 μl of the above-prepared i-NOS source, and 10 μl of varied amount of a test compound were added to 70 μl of a solution comprising 50 mM HEPES (N-2-hydroxyethylpiperazine-N'-2-ethanesulfonic acid) (pH 7.8), 1 mM DTT (dithiothreitol), 1 mM NADPH (reduced nicotinamide adenine dinucleotide phosphate), 0.1 mM BH4 (tetrahydrobiopterin), 10 μM FAD (flavin adenine dinucleotide), and 500 units/ml of CaM (calmodulin), and the solution was made to 100 μl. After incubation at 37° C. for 10 minutes, 0.225 ml of a reaction terminating buffer consisting of 100 mM HEPES (pH 5.1 to 5.5) and 10 mM EDTA (ethylenediaminetetraacetic acid) was added while cooling with ice to cease the enzymatic reaction. The reaction solution was passed through a column packed with 0.25 ml of Dowex 50WX-8 (Na^+ form) to remove unreacted L-arginine and the column was washed with 0.45 ml of the reaction terminating buffer to collect an effluent containing L-citrulline. The radioactivity of the effluent was measured with a liquid scintillation counter, which was taken as NOS activity, from which a 50% inhibition concentration of the test compound was obtained.
`C[C@H]1[C@H]2NC(=N)C[C@H](C)[C@@H]12` (relative stereo) [2 (g)] showed an IC50 of 0.092 µM.

Turning to `C[C@H]1CC(=N)N[C@@H]2C[C@H]12` (relative stereo) [3 (a)], the concentration for half-maximal inhibition (IC50) came to 0.09 µM.

`C[C@H]1CC(=N)N[C@@H]2[C@H](Cl)[C@@H]21` (relative stereo) [3 (c)] gave an IC50 of 0.02 µM.

The compound `C[C@@H]1CC(=N)N[C@@H]2C[C@H]12` (relative stereo) [3 (g)] yielded an IC50 of 0.047 µM.

As to `C[C@@H]1CC(=N)N[C@@]2(C)C[C@@H]12` (relative stereo) [3 (i)], the IC50 was 0.13 µM.

Turning to `C[C@H]1CC(=N)N[C@H]2[C@@H]1C2(Cl)Cl` (relative stereo) [4 (a)], the 50% inhibitory concentration (IC50) was 0.057 µM.

`C[C@H]1CC(=N)N[C@H]2[C@@H]1C2(C)C` (relative stereo) [compound 1] gave an IC50 of 0.22 µM.

`C[C@H]1CC(=N)N[C@H]2[C@@H]1C2(Cl)Cl` (single isomer, unassigned) [compound 4] gave a half-inhibitory concentration (IC50) of 0.021 µM.

Turning to `C[C@@H]1CC(=N)N[C@H]2C[C@@H]12` [3 (f)], half-maximal inhibition (IC50) required 0.18 µM.

In turn, `C[C@H]1CC(=N)N[C@@H]2[C@H](Cl)[C@@H]21` [compound 3] had an IC50 of 0.012 µM.

In turn, `N=C1CC2(CCN1)CC2` [compound 7] gave an IC50 of 0.2 µM.

Source of the values: patent US6228866A, “Condensed piperidine compound” (Ono Pharmaceutical Co., Ltd., priority 1997, dated 2001).
